Results reported in US6583248B1, “Polymerizable cyclodextrin derivatives” (American Dental Association Health Foundation, priority 1997, dated 2003).

Experiment: Qualitative solubility tests (polarizing microscope, drop of liquid under cover glass)
Format: physicochemical
Source text: Qualitative solubility tests. A few granules of the βCD or MβCD were placed on a microscope slide, covered with a cover glass, and examined with a polarizing microscope while a drop of liquid was placed to flow under the cover glass. These liquids comprised solvents having a wide range of solubility parameters and a number of monomers that might be of interest in dental or industrial formulations.

| subjective solubility in ethylene glycol dimethyl ether (ethylene glycol dimethyl ether) | subjective solubility in methanol | subjective solubility in water | subjective solubility in 1,3-glycerol dimethacrylate (1,3-glycerol dimethacrylate) | subjective solubility in benzyl methacrylate (benzyl methacrylate) | subjective solubility in hydroxyethyl methacrylate (hydroxyethyl methacrylate) | subjective solubility in triethyleneglycol dimethacrylate (triethyleneglycol dimethacrylate) | subjective solubility in undiluted BIS-GMA (undiluted BIS-GMA) | Molecule |
| --- | --- | --- | --- | --- | --- | --- | --- | --- |
| practically insoluble | practically insoluble | very slowly and only slightly soluble |  |  |  |  |  | OC[C@H]1O[C@@H]2O[C@H]3[C@H](O)[C@@H](O)[C@@H](O[C@H]4[C@H](O)[C@@H](O)[C@@H](O[C@H]5[C@H](O)[C@@H](O)[C@@H](O[C@H]6[C@H](O)[C@@H](O)[C@@H](O[C@H]7[C@H](O)[C@@H](O)[C@@H](O[C@H]8[C@H](O)[C@@H](O)[C@@H](O[C@H]1[C@H](O)[C@H]2O)O[C@@H]8CO)O[C@@H]7CO)O[C@@H]6CO)O[C@@H]5CO)O[C@@H]4CO)O[C@@H]3CO [βCD, beta-cyclodextrin, reference compound] |
|  | very rapidly soluble (miscible) | practically insoluble | slowly soluble | promptly soluble | promptly soluble | slowly soluble | very slowly soluble | fully methacrylated beta-cyclodextrin [MβCD] |
